Patent US7572799B2, “Pyrazolo[4,3-d]pyrimidines as Phosphodiesterase Inhibitors” (Pfizer Inc, priority 2003, dated 2009)

The compounds below were run against PDE-5 (UniProt O76074) (assay: In vitro PDE inhibitory activity against PDE5 (batch method or scintillation proximity assay)). Conditions: representative compounds.
Format: biochemical, human
Text: The compounds of the invention are inhibitors of cyclic guanylate monophosphate (cGMP)-specific phosphodiesterase type 5 (PDE-5 inhibitors).
The required PDE enzymes can be isolated from a variety of sources, including human corpus cavernosum, human and rabbit platelets, human cardiac ventricle, human skeletal muscle and bovine retina, essentially by a modification of the method of Thompson, W J et al.; Biochemistry 18(23), 5228-5237, 1979, as described by Ballard S A et al.; J. Urology 159(6), 2164-2171, 1998. In particular, cGMP-specific PDE5 and cGMP-inhibited cAMP PDE3 can be obtained from human corpus cavernosum tissue, human platelets or rabbit platelets; cGMP-stimulated PDE2 was obtained from human corpus cavernosum; calcium/calmodulin (Ca/CAM)-dependent PDE1 from human cardiac ventricle; cAMP-specific PDE4 from human skeletal muscle; and photoreceptor PDE6 from bovine retina. Phosphodiesterases 7-11 can be generated from full length human recombinant clones transfected into SF9 cells.
Assays can be performed either using a modification of the “batch”method of Thompson W J and Appleman M M; Biochemistry 10(2), 311-316, 1971, essentially as described by Ballard S A et al.; J. Urology 159(6), 2164-2171, 1998, or using a scintillation proximity assay for the direct detection of [^3H]-labelled AMP/GMP using a modification of the protocol described by Amersham plc under product code TRKQ7090/7100. In summary, for the scintillation proximity assay the effect of PDE inhibitors was investigated by assaying a fixed amount of enzyme in the presence of varying inhibitor concentrations and low substrate, (cGMP or cAMP in a 3:1 ratio unlabelled to [^3H]-labeled at a concentration of ˜⅓ Km, or less) such that IC50≅Ki. The final assay volume was made up to 100 μl with assay buffer [20 mM Tris-HCl pH 7.4, 5 mM MgCl2, 1 mg/ml bovine serum albumin]. Reactions were initiated with enzyme, incubated for 30-60 min at 30° C. to give <30% substrate turnover and terminated with 50 μl yttrium silicate SPA beads (containing 3 mM of the respective unlabelled cyclic nucleotide for PDEs 9 and 11).

Row | SMILES | IC50
1 | CCN(C)c1nc(Nc2cc(C)ccn2)c2c(n1)c(C(=O)O)nn2CC1CCOCC1 [Example 58] | 100 nM
2 | CCCN(C)c1nc(NC2CCCCC2)c2c(n1)c(C(=O)O)nn2CCOCC [Example 30] | 35.8 nM
3 | CCOCCn1nc(C(=O)O)c2nc(N(C)C(C)C)nc(NC3CCC3)c21 [Example 32] | 100 nM
4 | CCOCCn1nc(C(=O)O)c2nc(N(C)C(C)C)nc(NC3CCCC3)c21 [Example 31] | 43.4 nM
5 | CCOCCn1nc(C(=O)O)c2nc(N(C)C3CCC3)nc(N[C@@H]3CCOC3)c21 [Example 69] | 100 nM
6 | CCOCCn1nc(C(=O)O)c2nc(N(C)C(C)C)nc(N[C@@H]3CCOC3)c21 [Example 67] | 100 nM
7 | Cc1ccnc(Nc2nc(N(C)C)nc3c(C(=O)O)nn(CC4CCOCC4)c23)c1 [Example 57] | 100 nM

Same assay, conditions: representative compounds, read-out: IC50

Row | SMILES | IC50
8 | CCOCCn1nc(C(=O)O)c2nc(N(C)C)nc(Nc3cc(C)ccc3F)c21 [Example 100] | 3.48 nM
9 | CCOCCn1nc(C(=O)O)c2nc(N(C)C(C)C)nc(NC3CCOCC3)c21 [Example 83] | 27.8 nM
10 | CCOCCn1nc(C(=O)O)c2nc(N(C)C(C)C)nc(Nc3ccccc3)c21 [Example 95] | 9.11 nM
11 | CCOCCn1nc(C(=O)O)c2nc(N(CC)CC)nc(Nc3cc(C)ccn3)c21 [Example 11] | 1.09 nM
12 | CCOCCn1nc(-c2nc(=O)o[nH]2)c2nc(N(C)C(C)C)nc(Nc3cc(C)ccn3)c21 [Example 75, 3-[1-(2-Ethoxyethyl)-5-(N-isopropyl-N-methylamino)-7-(4-methylpyridin-2-ylamino)-1H-pyrazolo[4,3-d]pyrimidin-3-yl]-2H-1,2,4-oxadiazol-5-one] | 0.371 nM
13 | CCOCCn1nc(C(=O)O)c2nc(N(C)C)nc(Nc3cccc(C)n3)c21 [Example 39] | 57.2 nM
14 | CCOCCn1nc(C(=O)O)c2nc(N(C)CC)nc(Nc3ccc(C)c(C)c3)c21 [Example 103] | 21.4 nM
15 | CCOCCn1nc(C(=O)O)c2nc(N[C@@H](C)CC)nc(Nc3cc(C)ccn3)c21 [Example 55] | 2.6 nM
16 | CCOCCn1nc(C(=O)O)c2nc(N(C)C(C)C)nc(Nc3ccccn3)c21 [Example 105] | 0.741 nM
17 | CCOCCn1nc(C(=O)O)c2nc(N[C@H](C)CC)nc(Nc3cc(C)ccn3)c21 [Example 56] | 9.11 nM
18 | CCOCCn1nc(C(=O)O)c2nc(N(C)CC)nc(Nc3ccnc(OC)n3)c21 [Example 70] | 0.451 nM
19 | CCOCCn1nc(-c2nc(=O)o[nH]2)c2nc(N(C)CC)nc(Nc3cc(C)ccn3)c21 [Example 76] | 0.465 nM
20 | CCOCCn1nc(C(=O)O)c2nc(N(C)CC(C)C)nc(Nc3cc(C)ccn3)c21 [Example 16] | 0.51 nM
21 | Cc1ccnc(Nc2nc(N(C)C(C)C)nc3c(C(=O)O)nn(CCOC(C)C)c23)c1 [Example 111, 1-(2-Isopropoxyethyl)-5-(N-isopropyl-N-methylamino)-7-(4-methylpyridin-2-ylamino)-1H-pyrazolo[4,3-d]pyrimidine-3-carboxylic acid] | 0.502 nM
22 | CCOCCn1nc(C(=O)O)c2nc(N(C)C(C)C)nc(Nc3ccc(F)c(C)c3)c21 [Example 85] | 0.055 nM
23 | CCOCCn1nc(C(=O)O)c2nc(N(C)C(C)C)nc(Nc3ccccc3F)c21 [Example 104] | 9.69 nM
24 | CCN(CC)c1nc(Nc2cc(C)ccn2)c2c(n1)c(C(=O)NS(C)(=O)=O)nn2CCOCC(F)F [Example 182] | 1.4 nM
25 | CCOCCn1nc(C(=O)O)c2nc(N(CC)CC)nc(Nc3ccc(=O)n(C)c3)c21 [Example 125, 5-(Diethylamino)-1-(2-ethoxyethyl)-7-[(1-methyl-6-oxo-1,6-dihydropyridin-3-yl)amino]-1H-pyrazolo[4,3-]pyrimidine-3-carboxylic acid] | 1.53 nM
26 | CCNc1nc(Nc2cc(C)ccn2)c2c(n1)c(C(=O)O)nn2CCOC(C)C [Example 63] | 4.58 nM
27 | CCCOCCn1nc(C(=O)NS(C)(=O)=O)c2nc(N(C)CC)nc(Nc3cc(C)ccn3)c21 [Example 171] | 1.21 nM
28 | CCOCCn1nc(C(=O)O)c2nc(NC(C)C)nc(Nc3cc(C)ccn3)c21 [Example 54] | 2.03 nM
29 | Cc1ccnc(Nc2nc(N(C)C(C)C)nc3c(C(=O)NS(C)(=O)=O)nn(CCOCCCF)c23)c1 [Example 176] | 0.17 nM
30 | CCCN(C)c1nc(Nc2cc(C)ccn2)c2c(n1)c(C(=O)O)nn2CCOCC [Example 15] | 1.84 nM
31 | CCN(CC)c1nc(Nc2ccc(F)c(C)c2)c2c(n1)c(C(=O)O)nn2CCOCC(F)(F)F [Example 140] | 0.099 nM
32 | CCOCCn1nc(C(=O)O)c2nc(N(C)C(C)C)nc(Nc3cccc(F)c3F)c21 [Example 93] | 23.2 nM

Row | SMILES | IC50
33 | CCOCCn1nc(-c2nnn[nH]2)c2nc(N(C)C(C)C)nc(Nc3cc(C)ccn3)c21 [Example 79] | 0.332 nM
34 | CCCOCCn1nc(C(=O)NS(C)(=O)=O)c2nc(N(C)C(C)C)nc(Nc3cc(C)ccn3)c21 [Example 184, 5-[Isopropyl(methyl)amino]-7-[(4-methylpyridin-2-yl)amino]-N-(methylsulfonyl)-1-(2-propoxyethyl)-1H-pyrazolo[4,3-d]pyrimidine-3-carboxamide] | 0.5 nM
35 | CCOCCn1nc(C(=O)OC)c2nc(N(C)C)nc(Nc3cc(C)ccn3)c21 [Example 5] | 0.943 nM
36 | CCOCCn1nc(C(=O)O)c2nc(N(C)CC)nc(Nc3cc(C)ccc3F)c21 [Example 101] | 8.45 nM
37 | CCOCCn1nc(C(=O)O)c2nc(N(C)CC)nc(Nc3cc(C)ncn3)c21 [Example 120] | 1.12 nM
38 | CCOCCn1nc(C(=O)NS(C)(=O)=O)c2nc(N(C)CC)nc(Nc3cc(C)ncn3)c21 [Example 157] | 0.771 nM
39 | COCCn1nc(C(=O)O)c2nc(N(C)C(C)C)nc(Nc3cc(C)ccn3)c21 [Example 22] | 7.12 nM
40 | CCOCCn1nc(C(=O)O)c2nc(N3CCCC3)nc(Nc3cc(C)ccn3)c21 [Example 134, 1-(2-Ethoxyethyl)-7-[(4-methylpyridin-2-yl)amino]-5-pyrrolidin-1-yl-1H-pyrazolo[4,3-d]pyrimidine-3-carboxylic acid] | 5.02 nM
41 | CCOCCn1nc(C(=O)O)c2nc(N(C)CC)nc(Nc3cc(C)nc(C)n3)c21 [Example 74] | 100 nM
42 | CCCOCCn1nc(C(=O)O)c2nc(N(C)C(C)C)nc(Nc3cc(C)ccn3)c21 [Example 19] | 2.43 nM
43 | Cc1ccnc(Nc2nc(N(C)C3CCC3)nc3c(C(=O)O)nn(CCOCC(F)(F)F)c23)c1 [Example 130, 5-[Cyclobutyl(methyl)amino]-7-[(4-methylpyridin-2-yl)amino]-1-[2-(2,2,2-trifluoroethoxy)ethyl]-1H-pyrazolo[4,3-d]pyrimidine-3-carboxylic acid] | 19.5 nM
44 | CCOCCn1nc(C(=O)NS(C)(=O)=O)c2nc(N(C)CC)nc(Nc3cccc(C)n3)c21 [Example 149] | 14.4 nM
45 | CCOCCn1nc(C(=O)O)c2nc(N3CC[C@@H](OC)C3)nc(Nc3cc(C)ccn3)c21 [Example 13] | 1.46 nM
46 | CCOCCn1nc(C(=O)O)c2nc(N(C)C(C)C)nc(Nc3cccc(C)n3)c21 [Example 99] | 2.45 nM
47 | CO[C@H](C)Cn1nc(C(=O)O)c2nc(N(C)C(C)C)nc(Nc3cc(C)ccn3)c21 [Example 112, (2′R)-5-(N-Isopropyl-N-methylamino)-1-(2′-methoxypropyl)-7-(4-methylpyridin-2-ylamino)-1H-pyrazolo[4,3-d]pyrimidine-3-carboxylic acid] | 14.7 nM
48 | CCOCCn1nc(C(=O)O)c2nc(N(C)C(C)C)nc(Nc3cc(F)ccc3F)c21 [Example 92] | 41 nM
49 | CCOCCn1nc(C(=O)O)c2nc(N(C)C)nc(NC3CCOCC3)c21 [Example 82] | 55.1 nM
50 | CCN(C)c1nc(Nc2cc(C)ccn2)c2c(n1)c(C(=O)O)nn2CCOC(C)C [Example 62] | 1.85 nM
51 | CCOCCn1nc(C(=O)NS(C)(=O)=O)c2nc(N(C)C)nc(Nc3cc(C)ccn3)c21 [Example 114, N-[5-(Dimethylamino)-1-(2-ethoxyethyl)-7-(4-methylpyridin-2-ylamino)-1H-pyrazolo[4,3-d]pyrimidine-3-carbonyl]methanesulfonamide] | 4.83 nM
52 | CCOCCn1nc(C(=O)OC)c2nc(N(C)CC)nc(Nc3ccc(F)c(C)c3)c21 [Example 116, Methyl 1-(2-ethoxyethyl)-5-[ethyl(methyl)amino]-7-[(4-fluoro-3-methylphenyl)amino]-1H-pyrazolo[4,3-d]pyrimidine-3-carboxylate] | 0.032 nM
53 | CCN(CC)c1nc(Nc2cc(C)ccn2)c2c(n1)c(C(=O)NS(C)(=O)=O)nn2CCOCCCF [Example 177] | 0.17 nM
54 | CCN(C)c1nc(Nc2cc(C)ccn2)c2c(n1)c(C(=O)NS(C)(=O)=O)nn2CCOC [Example 162] | 3.1 nM
55 | CCOCCn1nc(C(=O)O)c2nc(N3CCCC3C)nc(Nc3cc(C)ccn3)c21 (centres unmarked) [Example 53] | 0.797 nM
56 | CCOCCn1nc(C(=O)O)c2nc(N(C)C3CCCC3)nc(Nc3cc(C)ccn3)c21 [Example 18] | 11.3 nM
